# In patent US20150056166A1, “FLAVONE DERIVATIVES AND THEIR USE” (Twincore GmbH, priority 2012, published 2015):
# Columns and labels:
# ED43 (GT4a) = test: Luciferase infection assay, chimeric reporter virus ED43/4a/R2a in Huh7-Lunet/CD81 cells; assay type: cell-based, HCV; conditions: Hepatitis C virus, Huh-7, 72 h
# [1] = Bioavailability of BJ486K in mice, plasma levels by LC-MS/MS; assay type: in vivo
# Description: FIG. 10: Oral bioavailability of BJ486K in mice. A single dose of 0.25 mg/kg of BJ486K was administered through oral (A) or intravenous route (B). Plasma levels of BJ486K were determined 5, 15, 30, 60, 120 and 180 minutes post administration. Mean values of two animals including the standard errors are given. (C)
# Bioavailability of BJ486K. Mice (24 in total) were treated either orally or intraveniously with a single dose of 0.25 mg/kg of the inhibitor (solved in saline/10% cremophor EL). At different time points after inhibitor administration (5 min, 15 min, 30 min, 60 min, 120 min or 180 min) two mice from each group were sacrified and the blood was centrifuged to obtain the plasma, which was stored at −80° C. until further examination. 400 μl of each plasma sample was mixed with equal amount of a 2% trifluoroacetic acid and loaded on a SPE Strata C18 column (equilibrated with 1 ml methanol and 1 ml 1% trifluoroacetic acid) for solid phase extraction of the plasma. After several washing steps (1% trifluoroacetic acid and water), the samples were eluted with acetonitrile and dried. […] Samples were further analyzed with a LC-MS/MS (triple quadrupole mass spectrometer LCMS 8030 Shimadzu), which was calibrated at the day of measurement. […] Bioavailability was calculated by dividing the area under curve (AUC) for oral route by the AUC for intravenous route.
# JcR-2a virus = test: microbe, parasite or virus in culture; assay type: cell-based, HCV
# Description: Combined effects of CsA on BJ486K and vice versa were analysed by inoculation of Huh7-Lunet/CD81 cells with JcR-2a virus in the presence of given drugs and determination of luciferase activity 72 h later. Mean values of three independent experiments each conducted in triplicates including the standard deviations are given. Data are normalized for values determined in mock treated controls.
# Huh7-Lunet/CD81 cells were infected with reporter virus particles essentially as described recently (Koutsoudakis et al., J. Virol. 2006; 80: 5308-5320). Briefly, for inoculation with firefly luciferase reporter virus particles (Luc-Jc1) and Renilla reporter viruses (JcR-2a (Reiss et al., Cell host & microbe 2011; 9: 32-45) and GT1-6, see plasmids below), Huh7-Lunet/CD81 cells were seeded at a density of 6×10 e4 cells per well of a 12-well plate or 6.6×10 e3 cells per well of a 96-well plate 24 h prior to inoculation. If not stated otherwise, the virus particles were pretreated with the inhibitors for 1 h at 37° C. Cells were inoculated for 4 h at 37° C., viral inoculum was replaced by fresh culture fluid and infection was quantified 48 h or 72 h after virus inoculation using luciferase assays. To this end, cells were washed once with PBS and in the case of the Luc-Jc1 infected cells, lysed directly on the plate with 350 μl of cold lysis buffer (0.1% Triton-X100, 25 mM glycylglycine, 15 mM MgSO4, 4 mM EGTA and 1 mM dithiothreitol, pH 7.8) and after addition of the luciferase solution (200 μM luciferin, 25 mM glycylglycine, pH8) measured for 20 s in a luminometer (Lumat LB9507, Berthold, Freiburg, Germany). Cells infected with the renilla reporter virus were lysed in 200 μl lysis buffer (Promega, Mannheim, Germany) and after addition of the luciferase substrate (1 μM of coelenterazin (P. J. K., Kleinblittersdorf, Germany) in PBS) measured for 1 s in a luminometer (Lumat LB9507, Berthold, Freiburg, Germany). The indicated IC50 values were determined by using Sigma Plot software (Systat Inc; San Jose; Calif.). […]
# Luc-Jc1 reporter viruses = test: Drug added before, during or after inoculation with Luc-Jc1 reporter virus (FIG. 2C); assay type: cell-based, HCV; conditions: luciferase 72 h
# Description: (A) Huh7-Lunet/CD81 cells were transfected with the subgenomic luciferase replicon depicted at the top. Drugs were added 4 h post transfection and the level of HCV RNA translation and RNA replication was quantified by luciferase assays 72 h post transfection. Mean values of three independent experiments each with quadruplicate measurements including the standard deviation are shown. (B) Cells were transfected with the Jc1 chimera depicted above and drugs were added 4 h later. HCV virus release in the presence or absence of given compounds was determined by quantification of intracellular and extracellular core protein levels using a core-specific ELISA. […] Infectivity was determined 72 h later by luciferase assays and compared to DMSO-treated controls. […]
# Huh7-Lunet/CD81 cells were infected with reporter virus particles essentially as described recently (Koutsoudakis et al., J. Virol. 2006; 80: 5308-5320). […] Cells were inoculated for 4 h at 37° C., viral inoculum was replaced by fresh culture fluid and infection was quantified 48 h or 72 h after virus inoculation using luciferase assays. […] Cells infected with the renilla reporter virus were lysed in 200 μl lysis buffer (Promega, Mannheim, Germany) and after addition of the luciferase substrate (1 μM of coelenterazin (P. J. K., Kleinblittersdorf, Germany) in PBS) measured for 1 s in a luminometer (Lumat LB9507, Berthold, Freiburg, Germany). […]
# Jc1 [2] = test: Infection of DMSO-differentiated Huh7-Lunet/CD81 cells with Jc1, limiting dilution assay; assay type: cell-based, HCV; conditions: virus production monitored for 12 days
# From the text: Next, we investigated if combination of CsA, an inhibitor of HCV RNA-replication in vitro and in vivo and also an immunosuppressive drug used in the HCV post-transplant setting, with BJ486K would increase antiviral potency. To this end, we challenged Huh7-Lunet/CD81 cells differentiated by DMSO-treatment with the highly infectious Jc1 chimera in the presence of CsA, BJ486K or a combination of both drugs (FIG. 5). […] To obtain a more quantitative measure for the combined antiviral effect of BJ486K and CsA, we inoculated nave Huh7-Lunet/CD81 cells with JcR-2a virus together with varying doses of both drugs (FIG. 6A).
# H77c (GT1a) = test: Luciferase infection assay, chimeric reporter virus H77c/1a/R2a in Huh7-Lunet/CD81 cells; assay type: cell-based, HCV; conditions: Hepatitis C virus, Huh-7, 72 h
# Jc1 [3] = test: HCV virus assembly/release, intra- and extracellular core protein after Jc1 RNA transfection; assay type: cell-based; conditions: up to a dose of 20 μM, 48 h after transfection
# Description: (A) Huh7-Lunet/CD81 cells were transfected with the subgenomic luciferase replicon depicted at the top. Drugs were added 4 h post transfection and the level of HCV RNA translation and RNA replication was quantified by luciferase assays 72 h post transfection. Mean values of three independent experiments each with quadruplicate measurements including the standard deviation are shown. (B) Cells were transfected with the Jc1 chimera depicted above and drugs were added 4 h later. HCV virus release in the presence or absence of given compounds was determined by quantification of intracellular and extracellular core protein levels using a core-specific ELISA. Mean values of three independent experiments with single measurements including the error range are given. (C) Huh7-Lunet/CD81 cells were inoculated with Luc-Jc1 reporter viruses prepared in the absence of drugs. BJ486K was added to the cells only prior to inoculation (black), only during inoculation (grey) or selectively directly after inoculation (white) as schematically depicted at the top. Infectivity was determined 72 h later by luciferase assays and compared to DMSO-treated controls. Mean values of three independent experiments each with quadruplicate measurements including the standard deviation are shown.
# Huh7-Lunet/CD81 cells were transfected with Jc1 RNA and seeded on a 6-well plate. Compounds were added 4 h later. At 48 h after transfection, cell culture supernatant was harvested and used for measuring the extracellular core amount. Cells were washed once with PBS, scraped and centrifuged for 5 min at 1000×g. Cell pellets were resuspended in 500 μl fresh culture fluid and subjected to three cycles of freeze and thaw using liquid nitrogen and a 37° C. thermo block. Samples were than centrifuged at 10,000×g for 10 min to remove cell debris and the core amount was measured (intracellular core protein) using the […] […]
# To determine whether BJ486K affects virus assembly or release we transfected Huh7-Lunet/CD81 cells with Jc1 RNA and quantified intra- and extracellular levels of core protein 48 h after transfection (FIG. 2B).
compound,measurement,setting,value
"COc1ccc(-c2cc(=O)c3c(O)c(O)c(OC)cc3o2)cc1 [BJ486K, 5,6-Dihydroxy-7-methoxy-2-(4-methoxy-phenyl)-chromen-4-one]",IC50,ED43 (GT4a),0.74 µM
same,IC90,ED43 (GT4a),1.78 µM
same,bio-availability,[1]; mice,rather low
same,half-life,"[1]; mouse, plasma, in mice",~7 min
same,decrease of the IC50 of BJ486K,JcR-2a virus; 100 ng/mL of CsA,ca. 3 fold
same,IC90,"JcR-2a virus; Hepatitis C virus, Huh-7, 72 h",4.37 µM
same,IC50,"JcR-2a virus; Hepatitis C virus, Huh-7, read-out: IC50 of BJ486K",~0.4 µM
same,interference with HCV infection by time of addition,Luc-Jc1 reporter viruses,only interfered with HCV infection when the drug was present during virus inoculation
same,"effect on infection of differentiated cells, in words",Jc1 [2],reduced infection almost down to background levels
same,IC50,H77c (GT1a),2.46 µM
same,IC90,H77c (GT1a),11.6 µM
same,intracellular and extracellular core protein levels,Jc1 [3],reduced neither intracellular nor extracellular core protein levels
